Marks after values point to notes of the source that are not given here.
Tests used:
casein kinase 1δ = casein kinase 1δ (Homo sapiens (Human), UniProt P48730); assay: Kinase inhibition assay (HotSpot assay, Reaction Biology Corp); type: biochemical; conditions: 10 μM ATP, 10-dose IC50 mode, 3-fold serial dilution starting at 10 μM; for pIC50: casein kinase 1δ; for IC50: read-out: CK1δ IC50
TGF-β-induced IL-11 = assay: Human parenchymal fibroblast cell assay: inhibition of TGF-β-induced IL-11 (ELISA); type: cell-based; conditions: primary human parenchymal fibroblasts, 100 pM TGF-β1, 16-24 hours, 4.00 is assigned to compounds that failed to cause 50% or more inhibition at 100 µM; for IC50: Fibroblast, read-out: pIC50 IL-11 suppression (converted)
Experimental: Primary human parenchymal fibroblast cells (pFbs) were cultured from parenchyma of lung resection specimens and from non-transplanted lungs of donors without chronic respiratory disease. pFbs were passaged in Dulbecco's Modified Eagle's Media (DMEM) containing 10% (v/v) heat-inactivated fetal calf serum (FCS), 15 mM HEPES, 0.2% (v/v) sodium bicarbonate, 2 mM L-glutamine, 1% (v/v) non-essential amino acids, 1% (v/v) sodium pyruvate, 2.5 μg/mL amphotericin, 5 IU/mL penicillin and 50 μg/mL streptomycin.
Prior to experimentation, pFb were incubated in serum-free DMEM containing 0.25% bovine serum albumin (BSA) and insulin-transferrin-selenium-containing supplement (Monomed A; CSL, Parkville, Melbourne, Australia). The cells were incubated with small molecular CK1δelta inhibitors (0.1-10 μM) for 30 min prior to 100 pM TGF-β1 (R&D Systems, Minneapolis, MN) and the incubation continued for 16-24 hours prior to harvest of supernatant for detection of immunoreactive IL-11. Stock solutions were made as 10 mM in 100% DMSO and diluted to the required concentration in medium containing 0.1% DMSO (final concentration).
Supernatants were collected for measurement of IL-11 (R&D DuoSet, DY218) by ELISA following the manufacturers' instructions. Generally, capture antibodies were initially diluted to the recommended concentrations using PBS buffer, and then used to coat the wells of 96-well microplates (Greiner, #655061) by adding 50 μL/well and incubated overnight at room temperature. Next day, solutions were discarded and wells were washed 3 times with wash buffer (PBS containing 0.1% (v/v) Tween-20) prior to the addition of 200 μL of blocking solution (PBS containing 1% (v/v) BSA) for 1 hour to block non-specific sites. Plates were then washed 3 times with wash buffer and 50 μL of samples or standards were then added to wells and incubated for 2 hours at room temperature. After the incubation, plates were washed 3 times with wash buffer and 50 μL of detection antibodies were added to wells and incubated for 2 hours at room temperature. Plates were then washed 3 times before adding streptavidin-conjugated horseradish peroxidase (at the recommended concentrations) for 45 min. Plates were then washed 5 times with wash buffer and 100 μL TMB substrate solution (equal parts A and B, BD Biosciences) was added to each well until sufficient signals emerged. The reactions were inactivated by adding 100 μL sulphuric acid (2M H2SO4). The absorbance was measured at 450 nm using the Multiskan Ascent® plate reader. The absorbance of the cytokine standards was fitted to a logistic equation, allowing the concentrations of cytokine in samples to be determined.
pIC50 values (the negative log of the concentration suppressing IL-11 level by 50%) for inhibition of TGF-β-induced IL-11 were interpolated from the linear regression of log concentration small molecule versus IL-11 level (Table 4 and FIG. 2).

Sequence of casein kinase 1δ (P48730 whole entry): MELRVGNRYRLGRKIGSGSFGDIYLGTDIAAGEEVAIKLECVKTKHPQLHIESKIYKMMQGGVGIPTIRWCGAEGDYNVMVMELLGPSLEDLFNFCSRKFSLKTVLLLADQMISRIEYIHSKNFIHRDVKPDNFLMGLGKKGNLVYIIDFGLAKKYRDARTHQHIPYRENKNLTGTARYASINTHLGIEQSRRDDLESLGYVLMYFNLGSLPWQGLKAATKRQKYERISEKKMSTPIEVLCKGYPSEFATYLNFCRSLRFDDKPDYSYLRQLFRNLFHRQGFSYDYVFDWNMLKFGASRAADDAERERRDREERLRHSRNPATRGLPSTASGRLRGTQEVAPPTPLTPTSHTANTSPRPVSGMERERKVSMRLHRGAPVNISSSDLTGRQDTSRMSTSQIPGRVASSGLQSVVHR

SMILES | pIC50 (casein kinase 1δ) | pIC50 IL-11 suppression (TGF-β-induced IL-11) | IC50 (TGF-β-induced IL-11) [nM] | IC50 (casein kinase 1δ) [nM]
CC(C)(F)n1cnc(-c2ccc(F)cc2)c1-c1ccnc(NCC2CCC(F)(F)CC2)n1 [ZH2-62] | 7.42 | < 4.00* | – | –
Fc1ccc(-c2ncn(C3CCCCC3)c2-c2ccnc(NCc3ccc(-c4ccccc4)cc3)n2)cc1 [ZH2-66, N-([1,1′-Biphenyl]-4-ylmethyl)-4-(1-cyclohexyl-4-(4-fluorophenyl)-1H-imidazol-5-yl)pyrimidin-2-amine] | 5.86 | – | > 100000 | –
Fc1ccc(-c2ncn(C3CCCCC3)c2-c2ccnc(NCC3CCCC3)n2)cc1 [ZH2-86, 4-(1-Cyclohexyl-4-(4-fluorophenyl)-1H-imidazol-5-yl)-N-(cyclopentylmethyl)pyrimidin-2-amine] | 8.15 | – | 1910 | 7.16
Fc1ccc(-c2ncn(C3CCCCC3)c2-c2ccnc(NCC3CCCCC3)n2)cc1 [ZH2-98, 4-(1-Cyclohexyl-4-(4-fluorophenyl)-1H-imidazol-5-yl)-N-(cyclohexylmethyl)pyrimidin-2-amine] | 7.91 | – | 1780 | 12.6
Fc1ccc(-c2ncn(C3CCCCC3)c2-c2ccnc(NCC3CCOCC3)n2)cc1 [ZH2-102, 4-(1-Cyclohexyl-4-(4-fluorophenyl)-1H-imidazol-5-yl)-N-((tetrahydro-2H-pyran-4-yl)methyl)pyrimidin-2-amine] | 8.77 | – | 407 | 1.7
FCn1cnc(-c2ccc(F)cc2)c1-c1ccnc(NCCCc2ccccc2)n1 [ZH2-122] | – | – | – | 5.07
Fc1ccc(-c2ncn(C3CCCCC3)c2-c2ccnc(NCc3ccccn3)n2)cc1 [ZH2-130, 4-(1-Cyclohexyl-4-(4-fluorophenyl)-1H-imidazol-5-yl)-N-(pyridin-2-ylmethyl)pyrimidin-2-amine(2-picolyl)] | 8.71 | – | 724 | 1.93
Fc1ccc(-c2ncn(C3CCCCC3)c2-c2ccnc(NCC3CCC(F)(F)CC3)n2)cc1 [ZH3-74, 4-(1-Cyclohexyl-4-(4-fluorophenyl)-1H-imidazol-5-yl)-N-((4,4-difluorocyclohexyl)methyl)pyrimidin-2-amine] | 8.53 | – | 6760 | 2.97
C[C@H](Nc1nccc(-c2c(-c3ccc(F)cc3)ncn2C2CCCCC2)n1)C1CCCCC1 [ZH3-90, (S)-4-(1-Cyclohexyl-4-(4-fluorophenyl)-1H-imidazol-5-yl)-N-(1-cyclohexylethyl)pyrimidin-2-amine] | 6.57 | – | > 100000 | –
C[C@@H](Nc1nccc(-c2c(-c3ccc(F)cc3)ncn2C2CCCCC2)n1)C1CCCCC1 [ZH3-94, (R)-4-(1-Cyclohexyl-4-(4-fluorophenyl)-1H-imidazol-5-yl)-N-(1-cyclohexylethyl)pyrimidin-2-amine] | 7.46 | – | 912 | 34.4
Fc1ccc(-c2ncn(C3CCCCC3)c2-c2ccnc(NCCCc3ccccc3)n2)cc1 [ZH3-98, 4-(1-Cyclohexyl-4-(4-fluorophenyl)-1H-imidazol-5-yl)-N-(3-phenylpropyl)pyrimidin-2-amine] | 8.59 | – | 2000 | 2.54

Source: patent US12215095B2, “Compounds for the treatment of respiratory diseases” (Tianli Biotech Pty Ltd, priority 2018, dated 2025)
